target: T1, human EHMT2 913-1193 (Homo sapiens, UniProt Q96KQ7); experiment: EHMT2 enzyme assay on histone peptide substrate (EHMT2 PEP); type: biochemical; conditions: recombinant human EHMT2 913-1193, histone H3 1-15 peptide, balanced conditions; read-out: EHMT2 PEP (IC50 μM)
T1 construct: recombinant purified human EHMT2 913-1193, Viva; purchased Viva
T1 sequence (Q96KQ7 913-1193): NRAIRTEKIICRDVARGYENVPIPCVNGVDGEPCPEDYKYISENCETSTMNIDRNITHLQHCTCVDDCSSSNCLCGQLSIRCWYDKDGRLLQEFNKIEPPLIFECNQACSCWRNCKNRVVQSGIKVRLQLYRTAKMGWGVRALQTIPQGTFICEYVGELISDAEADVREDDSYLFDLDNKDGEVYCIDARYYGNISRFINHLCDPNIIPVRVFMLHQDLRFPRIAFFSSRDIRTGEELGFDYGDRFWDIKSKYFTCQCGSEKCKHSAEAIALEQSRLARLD
Outline: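 10-pt 3-fold series, 50 μM top final, 2% DMSO; 30 min preinc w/ 0.031 nM enzyme; pH 7.5 Bicine/TCEP buffer; ^3H-SAM + biotin-histone peptide, 60 min RT; SAM quench; streptavidin Flashplate capture, TopCount.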

IC50	Compound
< 0.1 µM	CNc1cc(C)nc(Nc2ccc(OC)c(OC[C@@H]3CCN(C4CC4)C3)c2)n1 (single isomer, unassigned) [Compound 481]
0.1 to 1 µM	CNc1cc(C)nc(Nc2ccc(OC)c(OC[C@H]3CCN(C4CC4)C3)c2)n1 (single isomer, unassigned) [Compound 482]
> 10 µM	CNc1ccnc(Nc2ccc(OC)c(OCCOC3CC3)c2)n1 [Compound 453, N^2-(3-(2-cyclopropoxyethoxy)-4-methoxyphenyl)-N^4-methylpyrimidine-2,4-diamine]
> 10 µM	CNc1cc(C)nc(Nc2ccc(OC)c(OC3CCN(C)CC3)c2)n1 [Compound 455]
1 to 10 µM	CNc1cc(C)nc(Nc2ccc(OC)c(OCC3CCN(C4CCCC4)C3)c2)n1 (stereo not drawn) [Compound 456, N^2-(3-((1-cyclopentylpyrrolidin-3-yl)methoxy)-4-methoxyphenyl)-N^4,6-dimethylpyrimidine-2,4-diamine]
< 0.1 µM	CNc1cc(C)nc(Nc2ccc(OC)c(OCC3CCN(C4CC4)C3)c2)n1 (stereo not drawn) [Compound 457]
0.1 to 1 µM	CNc1cc(C2CCCC2)nc(Nc2ccc(OC)c(OCCCN3CCCC3)c2)n1 [Compound 458, 6-cyclopentyl-N^2-(4-methoxy-3-(3-(pyrrolidin-1-yl)propoxy)phenyl)-N^4-methylpyrimidine-2,4-diamine]
1 to 10 µM	CNc1cc(C2CCOCC2)nc(Nc2ccc(OC)c(OCCCN3CCCC3)c2)n1 [Compound 459, N^2-(4-methoxy-3-(3-(pyrrolidin-1-yl)propoxy)phenyl)-N^4-methyl-6-(tetrahydro-2H-pyran-4-yl)pyrimidine-2,4-diamine]
< 0.1 µM	COc1cnc(Nc2nc(C)cc3[nH]ncc23)cc1OCCCN1CCCC1 [Compound 460, N-(5-methoxy-4-(3-(pyrrolidin-1-yl)propoxy)pyridine-2-yl)-6-methyl-1H-pyrazolo[4,3-c]pyridine-4-amine]
< 0.1 µM	CNc1cc(C)nc(Nc2ccc(OC)c(OCC3CCN(CCO)C3)c2)n1 (stereo not drawn) [Compound 461, 2-(3-((2-methoxy-5-((4-methyl-6-(methylamino)pyrimidin-2-yl)amino)phenoxy)methyl)pyrrolidin-1-yl)ethan-1-ol]
< 0.1 µM	COc1ccc(Nc2nc(C)cc(NCC3CCOCC3)n2)cc1OCC1CCN(C2CC2)C1 (stereo not drawn) [Compound 462, N^2-(3-((1-cyclopropylpyrrolidin-3-yl)methoxy)-4-methoxyphenyl)-6-methyl-N^4-((tetrahydro-2H-pyran-4-yl)methyl)pyrimidine-2,4-diamine]
< 0.1 µM	CNc1cc(C)nc(Nc2ccc(OC)c(OCCCN(C)C3CC3)c2)n1 [Compound 463, N^2-(3-(3-(cyclopropyl(methyl)amino)propoxy)-4-methoxyphenyl)-N^4,6-dimethylpyrimidine-2,4-diamine]
0.1 to 1 µM	COc1cnc(Nc2cc(NCC3CCOCC3)cc(C)n2)cc1OCCCN1CCCC1 [Compound 464, N^2-(5-methoxy-4-(3-(pyrrolidin-1-yl)propoxy)pyridin-2-yl)-6-methyl-N^4-((tetrahydro-2H-pyran-4-yl)methyl)pyridine-2,4-diamine]
< 0.1 µM	CNc1cc(C)nc(Nc2ccc(OC)c(OCCCN3CC(O)C3)c2)n1 [Compound 465, 1-(3-(2-methoxy-5-((4-methyl-6-(methylamino)pyrimidin-2-yl)amino)phenoxy)propyl)azetidin-3-ol]
> 10 µM	CNc1cc(C)nc(Nc2ccc(OC)c(OC3CCN(C4CC4)CC3)c2)n1 [Compound 466, N^2-(3-((1-cyclopropylpiperidin-4-yl)oxy)-4-methoxyphenyl)-N^4,6-dimethylpyrimidine-2,4-diamine]
1 to 10 µM	CNc1cc(C)nc(Nc2ccc(OC)c(OC[C@H]3C[C@@H](N(C)C)C3)c2)n1 [Compound 468]
> 10 µM	CNc1cc(C)nc(Nc2ccc(OC)c(OC[C@H]3C[C@H](N(C)C)C3)c2)n1 [Compound 470]
1 to 10 µM	CCn1nc(Nc2nccc3[nH]ccc23)cc1COCCN1CCCC1 [Compound 471]
1 to 10 µM	CNc1cc(Nc2cc(OC[C@@H]3CCN(C)C3)c(OC)cn2)nc(C)n1 [Compound 473]
0.1 to 1 µM	CNc1cc(C)nc(Nc2cc(OC[C@@H]3CCN(C)C3)c(OC)cn2)c1 [Compound 475]
0.1 to 1 µM	CNc1ccnc(Nc2ccc(OC)c(OC[C@@H]3CN(C)C[C@@H]3C)c2)n1 [Compound 477]
> 10 µM	CNc1ccnc(Nc2ccc(OC)c(OCc3nnc(C4CC4)[nH]3)c2)n1 [Compound 478]
> 10 µM	CNc1ccnc(Nc2ccc(OC)c(OCc3ncn(C4CC4)n3)c2)n1 [Compound 480]

IC50	Compound
< 0.1 µM	CNc1cc(C(C)C)nc(Nc2ccc(OC)c(OCCCN3CCCC3)c2)n1 [Compound 483]
< 0.1 µM	COc1cnc(Nc2nc(C)cc3[nH]c(C)cc23)cc1OCCCN1CCCC1 [Compound 485]
> 10 µM	COc1ccc(Nc2nc(C)cc3[nH]ccc23)cc1OCCCN1CCCC1 [Compound 486]
1 to 10 µM	CNc1cc(C)nc(Nc2ccc(OC)c([C@H]3C[C@@H]3CN(C)C)c2)n1 [Compound 487]
0.1 to 1 µM	CNc1cc(C)nc(Nc2ccc(OC)c([C@H]3C[C@H]3CN(C)C)c2)n1 [Compound 488]
1 to 10 µM	CNc1cc(C)nc(Nc2ccc(OC)c(OC(C#N)CCN3CCCC3)c2)n1 (stereo not drawn) [Compound 489]
< 0.1 µM	CNc1cc(C)nc(Nc2ccc(OC)c(OCCCN3CCC3)c2)n1 [Compound 490]
0.1 to 1 µM	CNc1cc(C)nc(Nc2ccc(OC)c(OC[C@@H]3CN(C)C[C@H]3O)c2)n1 [Compound 491]
0.1 to 1 µM	CNc1cc(C)nc(Nc2ccc(OC)c(OC[C@@H]3CN(C)C[C@@H]3O)c2)n1 [Compound 492]
< 0.1 µM	COc1cnc(Nc2nc(C)cc3[nH]ccc23)cc1OCC1CCN(C2CC2)C1 (stereo not drawn) [Compound 494]
0.1 to 1 µM	COc1cnc(Nc2nc(C)cc3[nH]ccc23)cc1OC[C@H]1CCN(C2CC2)C1 [Compound 494a]
0.1 to 1 µM	COc1cnc(Nc2nc(C)cc3[nH]ccc23)cc1OC[C@@H]1CCN(C2CC2)C1 [Compound 495]
1 to 10 µM	CNc1cc(C)nc(Nc2cc(Cl)c(OC)c(OCCCN3CCCC3)c2)n1 [Compound 496]
0.1 to 1 µM	CCc1ccc(Nc2nc(C)cc(NC)n2)cc1OCCCN1CCCC1 [Compound 497]
1 to 10 µM	CNc1cc(C)nc(Nc2ccc(OC)c(OCCCN3CCC4(CC4)C3)c2)n1 [Compound 498, N^2-(3-(3-(5-azaspiro[2.4]heptan-5-yl)propoxy)-4-methoxyphenyl)-N^4,6-dimethylpyrimidine-2,4-diamine]
1 to 10 µM	CNc1cc(C)nc(Nc2ccc(OC)c(OCCCCN(C)C)c2)n1 [Compound 502]
1 to 10 µM	CNc1cc(C)nc(Nc2ccc(OC)c(OCCC3CCN(C)C3)c2)n1 (stereo not drawn) [Compound 503]
0.1 to 1 µM	CNc1cc(C)nc(Nc2ccc(OC)c(OCCCN3CCCC3C)c2)n1 (stereo not drawn) [Compound 504, N^2-(4-methoxy-3-(3-(2-methylpyrrolidin-1-yl)propoxy)phenyl)-N^4,6-dimethylpyrimidine-2,4-diamine]
< 0.1 µM	CNc1cc(C)nc(Nc2ccc(OC)c(OCCCN3CC4CC4C3)c2)n1 (stereo not drawn) [Compound 506]
< 0.1 µM	COc1cnc(Nc2nccc3[nH]ccc23)cc1OCCCN1CC2CC2C1 (stereo not drawn) [Compound 507]
1 to 10 µM	CNc1cc(C)nc(Nc2ccc(OC)c(OCCC3CN(C)C3)c2)n1 [Compound 508]
0.1 to 1 µM	CNc1cc(Nc2cc(OCCCN3CC4CC4C3)c(OC)cn2)nc(C)c1F (stereo not drawn) [Compound 509]

From patent US20210198277A1, “AMINE-SUBSTITUTED ARYL OR HETEROARYL COMPOUNDS” (Epizyme, Inc., priority 2016, published 2021)
